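Following 48 hours of exposure in 96-well plates, responses at five concentrations were used to interpolate endpoints linearly. GI50 marks 50% less growth.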 Calls of active or inactive are those of the source. No stated cut-off is given here; in the data, active = GI50 up to about 1.1 µM and inactive = higher.
How the values were obtained:
Test in all cases: NCI tumour cell line growth inhibition, 48 h
SK-OV-3 = test system: SK-OV-3
DMS-114 = test system: DMS-114
IGROV-1 = test system: IGROV-1
HT-29 = test system: HT-29
KM-20L2 = test system: KM-20L2
CCRF-CEM = test system: CCRF-CEM
M14 = test system: M14
LOX IMVI = test system: LOX IMVI
SNB-75 = test system: SNB-75
UO-31 = test system: UO-31
HCT-15 = test system: HCT-15
SF-268 = test system: SF-268
COLO 205 = test system: COLO 205
SN12C = test system: SN12C
HOP-92 = test system: HOP-92
UACC-62 = test system: UACC-62
TK-10 = test system: TK-10
HCT-116 = test system: HCT-116
UACC-257 = test system: UACC-257
RXF 631 = test system: RXF 631
M19-MEL = test system: M19-MEL
SK-MEL-2 = test system: SK-MEL-2
K562 = test system: K562
XF498 = test system: XF498
CAKI-1 = test system: CAKI-1
SK-MEL-28 = test system: SK-MEL-28
U-251 = test system: U-251
Malme-3M = test system: Malme-3M
SNB-78 = test system: SNB-78
NCI-H23 = test system: NCI-H23
HOP-18 = test system: HOP-18
786-0 = test system: 786-0
LXFL 529 = test system: LXFL 529
NCI-H460 = test system: NCI-H460
SF-295 = test system: SF-295
HOP-62 = test system: HOP-62
A549 = test system: A549
KM12 = test system: KM12
DLD-1 = test system: DLD-1
OVCAR-8 = test system: OVCAR-8
A498 = test system: A498
HCC 2998 = test system: HCC 2998
SR = test system: SR
HL-60 = test system: HL-60
SW-620 = test system: SW-620
MOLT-4 = test system: MOLT-4
SNB-19 = test system: SNB-19
ACHN = test system: ACHN
OVCAR-5 = test system: OVCAR-5
OVCAR-3 = test system: OVCAR-3
EKVX = test system: EKVX
RXF 393 = test system: RXF 393
NCI-H522 = test system: NCI-H522
SK-MEL-5 = test system: SK-MEL-5
OVCAR-4 = test system: OVCAR-4
DMS-273 = test system: DMS-273
SF-539 = test system: SF-539
NCI-H226 = test system: NCI-H226
RPMI-8226 = test system: RPMI-8226

O=C1C2C3C=C4c5ccccc5N(c5ccccc5)C4(C2C(=O)N1c1ccccc1)C1C(=O)N(c2ccccc2)C(=O)C31 (stereo not drawn)
GI50 (SK-OV-3): > 10 µM (inactive) | GI50 (DMS-114): > 100 µM (inactive) | GI50 (IGROV-1): > 10 µM (inactive) | GI50 (HT-29): 6.56 µM (inactive) | GI50 (KM-20L2): > 100 µM (inactive) | GI50 (CCRF-CEM): 8.81 µM (inactive) | GI50 (M14): > 100 µM (inactive) | GI50 (LOX IMVI): > 100 µM (inactive) | GI50 (SNB-75): 65.8 µM (inactive) | GI50 (UO-31): > 100 µM (inactive) | GI50 (HCT-15): > 100 µM | GI50 (SF-268): > 100 µM (inactive) | GI50 (COLO 205): 35.6 µM (inactive) | GI50 (SN12C): > 100 µM (inactive) | GI50 (HOP-92): 2.4 µM (inactive) | GI50 (UACC-62): 3.61 µM (inactive) | GI50 (TK-10): > 100 µM (inactive) | GI50 (HCT-116): > 100 µM (inactive) | GI50 (UACC-257): 42.8 µM (inactive) | GI50 (RXF 631): > 100 µM (inactive) | GI50 (M19-MEL): 5.13 µM (inactive) | GI50 (SK-MEL-2): > 100 µM (inactive) | GI50 (K562): > 100 µM (inactive) | GI50 (XF498): 37 µM (inactive) | GI50 (CAKI-1): > 100 µM (inactive) | GI50 (SK-MEL-28): 8.17 µM (inactive) | GI50 (U-251): > 100 µM (inactive) | GI50 (Malme-3M): 7.67 µM (inactive) | GI50 (SNB-78): > 100 µM (inactive) | GI50 (NCI-H23): > 100 µM (inactive) | GI50 (HOP-18): > 100 µM (inactive) | GI50 (786-0): > 100 µM (inactive) | GI50 (LXFL 529): > 100 µM (inactive) | GI50 (NCI-H460): 4.05 µM (inactive) | GI50 (SF-295): > 100 µM (inactive) | GI50 (HOP-62): > 100 µM (inactive) | GI50 (A549): > 100 µM (inactive) | GI50 (KM12): > 100 µM (inactive) | GI50 (DLD-1): > 100 µM (inactive) | GI50 (OVCAR-8): > 100 µM (inactive) | GI50 (A498): 2.34 µM (inactive) | GI50 (HCC 2998): > 100 µM (inactive) | GI50 (SR): 6.35 µM (inactive) | GI50 (HL-60): > 100 µM (inactive) | GI50 (SW-620): > 100 µM (inactive) | GI50 (MOLT-4): 3.3 µM (inactive) | GI50 (SNB-19): > 100 µM (inactive) | GI50 (ACHN): > 100 µM (inactive) | GI50 (OVCAR-5): > 100 µM (inactive)

Cc1cccc(C(C)(C)C)c1NC(=O)CCl
GI50 (SK-OV-3): > 100 µM (inactive) | GI50 (IGROV-1): > 100 µM (inactive) | GI50 (OVCAR-3): > 100 µM (inactive) | GI50 (HT-29): > 100 µM (inactive) | GI50 (KM-20L2): > 100 µM (inactive) | GI50 (CCRF-CEM): > 100 µM (inactive) | GI50 (M14): > 100 µM (inactive) | GI50 (LOX IMVI): > 100 µM (inactive) | GI50 (SNB-75): > 100 µM (inactive) | GI50 (EKVX): > 100 µM (inactive) | GI50 (UO-31): > 100 µM (inactive) | GI50 (SF-268): > 100 µM (inactive) | GI50 (COLO 205): > 100 µM (inactive) | GI50 (RXF 393): > 100 µM (inactive) | GI50 (SN12C): > 100 µM (inactive) | GI50 (UACC-62): > 100 µM (inactive) | GI50 (NCI-H522): > 100 µM (inactive) | GI50 (TK-10): > 100 µM (inactive) | GI50 (HCT-116): > 100 µM (inactive) | GI50 (UACC-257): > 100 µM (inactive) | GI50 (RXF 631): > 100 µM (inactive) | GI50 (M19-MEL): > 100 µM (inactive) | GI50 (SK-MEL-2): > 100 µM (inactive) | GI50 (K562): > 100 µM (inactive) | GI50 (XF498): > 100 µM (inactive) | GI50 (CAKI-1): > 100 µM (inactive) | GI50 (SK-MEL-28): > 100 µM (inactive) | GI50 (U-251): > 100 µM (inactive) | GI50 (SK-MEL-5): > 100 µM (inactive) | GI50 (Malme-3M): > 100 µM (inactive) | GI50 (SNB-78): > 100 µM (inactive) | GI50 (NCI-H23): > 100 µM (inactive) | GI50 (HOP-18): > 100 µM (inactive) | GI50 (786-0): > 100 µM (inactive) | GI50 (LXFL 529): > 100 µM (inactive) | GI50 (NCI-H460): > 100 µM (inactive) | GI50 (SF-295): > 100 µM (inactive) | GI50 (OVCAR-4): > 100 µM (inactive) | GI50 (HOP-62): > 100 µM (inactive) | GI50 (A549): > 100 µM (inactive) | GI50 (DMS-273): > 100 µM (inactive) | GI50 (KM12): > 100 µM (inactive) | GI50 (DLD-1): > 100 µM (inactive) | GI50 (OVCAR-8): > 100 µM (inactive) | GI50 (SF-539): > 100 µM (inactive) | GI50 (A498): > 100 µM (inactive) | GI50 (HCC 2998): > 100 µM (inactive) | GI50 (SR): > 100 µM (inactive) | GI50 (HL-60): > 100 µM (inactive) | GI50 (SW-620): > 100 µM (inactive) | GI50 (MOLT-4): > 100 µM (inactive) | GI50 (NCI-H226): > 100 µM (inactive) | GI50 (SNB-19): > 100 µM (inactive) | GI50 (ACHN): > 100 µM (inactive)

Nc1nnc(O)c2c1c(I)cn2C1OC(CO)C(O)C1O (stereo not drawn)
GI50 (SK-OV-3): > 100 µM (inactive) | GI50 (DMS-114): 1.43 µM (inactive) | GI50 (IGROV-1): 0.643 µM (active) | GI50 (OVCAR-3): 0.0745 µM (active) | GI50 (HT-29): 0.122 µM (active) | GI50 (KM-20L2): 2.49 µM (inactive) | GI50 (CCRF-CEM): 0.129 µM (active) | GI50 (M14): 0.64 µM (active) | GI50 (LOX IMVI): 0.112 µM (active) | GI50 (SNB-75): 0.718 µM (active) | GI50 (EKVX): 1.3 µM (inactive) | GI50 (RPMI-8226): 0.35 µM (active) | GI50 (UO-31): 1.52 µM (inactive) | GI50 (HCT-15): 0.188 µM | GI50 (SF-268): 2.21 µM (inactive) | GI50 (COLO 205): 0.708 µM (active) | GI50 (RXF 393): 1.06 µM (active) | GI50 (SN12C): 0.284 µM (active) | GI50 (HOP-92): 0.805 µM (active) | GI50 (UACC-62): 3.12 µM (inactive) | GI50 (TK-10): 3.01 µM (inactive) | GI50 (HCT-116): 0.232 µM (active) | GI50 (UACC-257): 2.15 µM (inactive) | GI50 (RXF 631): 0.295 µM (active) | GI50 (SK-MEL-2): 0.0226 µM (active) | GI50 (K562): 0.75 µM (active) | GI50 (XF498): 2.96 µM (inactive) | GI50 (SK-MEL-28): 1.18 µM (inactive) | GI50 (U-251): 1.09 µM (active) | GI50 (SK-MEL-5): 1.89 µM (inactive) | GI50 (Malme-3M): 0.778 µM (active) | GI50 (SNB-78): 1.17 µM (inactive) | GI50 (NCI-H23): 0.5 µM (active) | GI50 (HOP-18): 3.05 µM (inactive) | GI50 (LXFL 529): 0.646 µM (active) | GI50 (NCI-H460): 0.0728 µM (active) | GI50 (SF-295): 1.43 µM (inactive) | GI50 (OVCAR-4): 1.3 µM (inactive) | GI50 (HOP-62): 2.5 µM (inactive) | GI50 (A549): 2.07 µM (inactive) | GI50 (DMS-273): 0.125 µM (active) | GI50 (KM12): 0.393 µM (active) | GI50 (DLD-1): 0.082 µM (active) | GI50 (OVCAR-8): 0.105 µM (active) | GI50 (SF-539): 0.526 µM (active) | GI50 (A498): 5.56 µM (inactive) | GI50 (HCC 2998): 0.208 µM (active) | GI50 (SR): 0.0466 µM (active) | GI50 (HL-60): 0.118 µM (active) | GI50 (SW-620): 0.0904 µM (active) | GI50 (MOLT-4): 0.0474 µM (active) | GI50 (NCI-H226): 3.04 µM (inactive) | GI50 (SNB-19): 7.93 µM (inactive) | GI50 (ACHN): 0.592 µM (active) | GI50 (OVCAR-5): 0.689 µM (active)

From ChEMBL document CHEMBL1201862, “PubChem BioAssay data set” (2004)
